From patent publication US7786108B2, “Compounds and method for treating dyslipidemia” (Eli Lilly and Company, priority 2004, dated 2010)

System: transgenic mice that express both human CETP and human apolipoprotein A-1
Assay: In vivo assay of plasma lipids: elevation of HDL cholesterol
Settings: Mus musculus; single oral dose 30 mg/kg; HDL cholesterol in serum at 8 hr after administration; relative to a control; read-out: % HDL cholesterol increase
From the text: Additional serum lipids can be analyzed by enzymatic methods.

Row | SMILES | change in vivo at 30 mg/kg
1 | Cc1cc2c(cc1C(F)(F)F)N(Cc1ccc(C(=O)O)cc1)CCC[C@@H]2N(Cc1cc(C(F)(F)F)cc(C(F)(F)F)c1)c1nnn(C)n1 [Example 89, (S)-4-{5-[(3,5-Bis-trifluoromethyl-benzyl)-(2-methyl-2H-tetrazol-5-yl)-amino]-7-methyl-8-trifluoromethyl-2,3,4,5-tetrahydro-benzo[b]azepin-1-ylmethyl}-benzoic acid] | 186%
2 | Cc1cc2c(c(C)c1C(F)(F)F)N(Cc1ccncc1)CCC[C@@H]2N(Cc1cc(C(F)(F)F)cc(C(F)(F)F)c1)c1nnn(C)n1 [Example 151, (S)-(3,5-Bis-trifluoromethyl-benzyl)-(7,9-dimethyl-1-pyridin-4-ylmethyl-8-trifluoromethyl-2,3,4,5-tetrahydro-1H-benzo[b]azepin-5-yl)-(2-methyl-2H-tetrazol-5-yl)-amine] | 165%
3 | Cc1cc2c(cc1C(F)(F)F)N(Cc1ccc(O)c(C(=O)O)c1)CCC[C@@H]2N(Cc1cc(C(F)(F)F)cc(C(F)(F)F)c1)c1nnn(C)n1 [Example 141, (S)-5-{5-[(3,5-Bis-trifluoromethyl-benzyl)-(2-methyl-2H-tetrazol-5-yl)-amino]-7-methyl-8-trifluoromethyl-2,3,4,5-tetrahydro-benzo[b]azepin-1-ylmethyl}-2-hydroxy-benzoic acid] | 74%
4 | Cc1cc2c(cc1C(F)(F)F)N(C(=O)OC(C)(C)C)CCC[C@@H]2N(Cc1cc(C(F)(F)F)cc(C(F)(F)F)c1)c1nnn(C)n1 [Example 17, (S)-5-[(3,5-Bis-trifluoromethyl-benzyl)-(2-methyl-2H-tetrazol-5-yl)-amino]-7-methyl-8-trifluoromethyl-2,3,4,5-tetrahydro-benzo[b]azepine-1-carboxylic acid tert-butyl ester] | 73%
5 | CC(C)OC(=O)N1CCCC(N(Cc2cc(C(F)(F)F)cc(C(F)(F)F)c2)c2nnn(C)n2)c2cc3c(cc21)CCC3 (racemic) [Example 50, (+/−)-9-[(3,5-Bis-trifluoromethyl-benzyl)-(2-methyl-2H-tetrazol-5-yl)-amino]-2,3,6,7,8,9-hexahydro-1H-5-aza-cyclohepta[f]indene-5-carboxylic acid isopropyl ester] | 127%

System: not given
Assay: not given
Settings: not given

Row | melting point | SMILES
6 | 62 to 65 °C (dec.) | COC(=O)c1cccc(CN2CCC[C@H](N(Cc3cc(C(F)(F)F)cc(C(F)(F)F)c3)c3nnn(C)n3)c3cc(C)c(C(F)(F)F)cc32)c1 [Example 90, (S)-3-{5-[(3,5-Bis-trifluoromethyl-benzyl)-(2-methyl-2H-tetrazol-5-yl)-amino]-7-methyl-8-trifluoromethyl-2,3,4,5-tetrahydro-benzo[b]azepin-1-ylmethyl}-benzoic acid methyl ester]
7 | 95 to 98 °C | Cc1cc2c(cc1C(F)(F)F)N(Cc1ccc(C(=O)O)cc1)CCC[C@@H]2N(Cc1cc(C(F)(F)F)cc(C(F)(F)F)c1)c1nnn(C)n1 [Example 89, (S)-4-{5-[(3,5-Bis-trifluoromethyl-benzyl)-(2-methyl-2H-tetrazol-5-yl)-amino]-7-methyl-8-trifluoromethyl-2,3,4,5-tetrahydro-benzo[b]azepin-1-ylmethyl}-benzoic acid]
8 | 101 to 105 °C | Cc1cc2c(cc1C(F)(F)F)N(c1ccc(C(=O)O)cc1)CCC[C@@H]2N(Cc1cc(C(F)(F)F)cc(C(F)(F)F)c1)c1nnn(C)n1 [Example 92, (S)-4-{5-[(3,5-Bis-trifluoromethyl-benzyl)-(2-methyl-2H-tetrazol-5-yl)-amino]-7-methyl-8-trifluoromethyl-2,3,4,5-tetrahydro-benzo[b]azepin-1-yl}-benzoic acid]
9 | 83 to 86 °C | Cc1cc2c(cc1C(F)(F)F)N(Cc1cccc(C(=O)O)c1)CCC[C@@H]2N(Cc1cc(C(F)(F)F)cc(C(F)(F)F)c1)c1nnn(C)n1 [Example 91, (S)-3-{5-[(3,5-Bis-trifluoromethyl-benzyl)-(2-methyl-2H-tetrazol-5-yl)-amino]-7-methyl-8-trifluoromethyl-2,3,4,5-tetrahydro-benzo[b]azepin-1-ylmethyl}-benzoic acid]
10 | 71 to 74 °C (dec.) | COC(=O)c1ccc(CN2CCC[C@H](N(Cc3cc(C(F)(F)F)cc(C(F)(F)F)c3)c3nnn(C)n3)c3cc(C)c(C(F)(F)F)cc32)cc1 [Example 88, (S)-4-{5-[(3,5-Bis-trifluoromethyl-benzyl)-(2-methyl-2H-tetrazol-5-yl)-amino]-7-methyl-8-trifluoromethyl-2,3,4,5-tetrahydro-benzo[b]azepin-1-ylmethyl}-benzoic acid methyl ester]
